“And” between values parts separate entries of the source, which are not always exact repeats. Equal entries are not always repeated. Where two headings read alike, the source gives them in different places.
What was measured:
[1] = target: T1, rat adrenergic α1B receptor (Rattus norvegicus, UniProt P15823); assay: Radioligand binding, adrenergic α1B ([3H]Prazosin)
T1 construct: rat adrenergic α1B receptor obtained from Wistar Rat liver; from tissue; host or cells: Wistar rat liver
T1 sequence (P15823 1-515): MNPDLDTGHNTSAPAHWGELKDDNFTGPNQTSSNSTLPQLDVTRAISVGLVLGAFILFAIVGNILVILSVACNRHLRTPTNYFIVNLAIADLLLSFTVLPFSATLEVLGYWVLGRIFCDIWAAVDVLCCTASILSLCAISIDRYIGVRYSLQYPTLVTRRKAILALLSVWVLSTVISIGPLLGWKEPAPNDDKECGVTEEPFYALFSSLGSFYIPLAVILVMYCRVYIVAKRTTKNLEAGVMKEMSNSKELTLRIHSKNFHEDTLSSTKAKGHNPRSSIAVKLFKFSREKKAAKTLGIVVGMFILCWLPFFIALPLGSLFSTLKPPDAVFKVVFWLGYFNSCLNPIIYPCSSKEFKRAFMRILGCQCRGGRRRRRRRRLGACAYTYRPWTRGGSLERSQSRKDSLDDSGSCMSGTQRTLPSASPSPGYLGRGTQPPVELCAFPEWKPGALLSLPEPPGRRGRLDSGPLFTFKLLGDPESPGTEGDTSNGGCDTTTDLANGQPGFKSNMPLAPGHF
How it was run: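 Incubation ran 60 min at 25 °C in Tris-HCl buffer (50 mM, pH 7.4, 0.5 mM EDTA) with Wistar rat liver α1B receptor. 10 μM phentolamine set non-specific binding.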

[2] = target: T2, human recombinant adrenergic α2B receptor (Homo sapiens, UniProt P18089); assay: Radioligand binding, adrenergic α2B ([3H]Rauwolscine)
T2 construct: expressed in transfected cells; host or cells: CHO-K1
T2 sequence (P18089 1-450): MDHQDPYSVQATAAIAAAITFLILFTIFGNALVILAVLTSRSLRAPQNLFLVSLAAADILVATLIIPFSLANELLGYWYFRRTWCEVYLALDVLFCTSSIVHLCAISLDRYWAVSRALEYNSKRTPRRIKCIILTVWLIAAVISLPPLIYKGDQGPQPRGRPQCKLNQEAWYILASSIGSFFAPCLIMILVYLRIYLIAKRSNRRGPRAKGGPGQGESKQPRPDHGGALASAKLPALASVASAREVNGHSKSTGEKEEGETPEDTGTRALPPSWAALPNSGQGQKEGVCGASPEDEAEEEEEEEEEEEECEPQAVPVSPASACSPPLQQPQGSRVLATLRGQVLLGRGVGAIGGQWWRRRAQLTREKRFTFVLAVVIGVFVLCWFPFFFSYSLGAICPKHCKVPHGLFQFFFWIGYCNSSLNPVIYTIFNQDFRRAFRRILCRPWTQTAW
How it was run: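 Receptor expressed in CHO-K1 cells, assayed in 50 mM Tris-HCl pH 7.4 with 12.5 mM MgCl2, 1 mM EDTA and 0.2% BSA. Compounds were incubated with 2.5 nM [3H]Rauwolscine for 60 min at 25° C; 10 μM Prazosin defined non-specific binding. Filter counting gave percent inhibition of specific binding.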

[3] = target: T3, human recombinant adrenergic α2A receptor (Homo sapiens, UniProt P08913); assay: Radioligand binding, adrenergic α2A ([3H]MK-912)
T3 construct: expressed in transfected cells; host or cells: insect Sf9 cells
T3 sequence (P08913 1-465): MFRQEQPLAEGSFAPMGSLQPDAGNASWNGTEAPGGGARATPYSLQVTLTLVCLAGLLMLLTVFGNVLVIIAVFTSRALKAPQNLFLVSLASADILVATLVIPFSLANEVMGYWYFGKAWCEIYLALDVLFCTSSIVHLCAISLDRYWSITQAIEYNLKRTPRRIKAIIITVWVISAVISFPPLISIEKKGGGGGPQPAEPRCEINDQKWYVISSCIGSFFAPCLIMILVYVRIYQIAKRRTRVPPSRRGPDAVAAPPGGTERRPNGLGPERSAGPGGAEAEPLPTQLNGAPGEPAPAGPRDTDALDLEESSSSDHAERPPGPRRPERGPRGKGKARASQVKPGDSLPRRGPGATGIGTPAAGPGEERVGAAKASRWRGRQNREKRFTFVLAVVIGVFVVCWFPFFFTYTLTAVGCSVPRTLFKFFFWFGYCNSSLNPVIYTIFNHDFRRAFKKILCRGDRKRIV
How it was run: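 Receptor expressed in insect Sf9 cells, assayed in 50 mM Tris-HCl pH 7.4 with 12.5 mM MgCl2 and 2 mM EDTA. Compounds incubated with 1 nM [3H]MK-912 for 60 min at 25 °C; nonspecific binding defined with 10 μM WB-4101. Filter-bound radioactivity counted; values are percent inhibition of specific binding.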

[4] = 0.1 μM compound, read-out: Percentage inhibition of ligand binding, Adrenergic α1B
[5] = 0.03 μM compound, read-out: Percentage inhibition of ligand binding, Adrenergic α2B
[6] = 0.1 μM compound, read-out: Percentage inhibition of ligand binding, Adrenergic α2A
[7] = read-out: Percentage inhibition of ligand binding, Adrenergic α1B (0.1 μM), compound at 0.1 μM, [3H]Prazosin, repeat datapoints each shown
[8] = read-out: Percentage inhibition of ligand binding, Adrenergic α2B (0.03 μM), compound at 0.03 μM, [3H]Rauwolscine, repeat datapoints each shown
[9] = read-out: Percentage inhibition of ligand binding, Adrenergic α2A (0.1 μM), compound at 0.1 μM, [3H]MK-912, repeat datapoints each shown
[10] = compound at 0.1 μM, [3H]Prazosin, repeat assays, each datapoint shown, 0.1 µM
[11] = compound at 0.03 μM, [3H]Rauwolscine, repeat assays, each datapoint shown, 0.03 µM
[12] = compound at 0.1 μM, [3H]MK-912, repeat assays, each datapoint shown, 0.1 µM
[13] = compound at 0.03 μM, [3H]Rauwolscine, repeat assays, each datapoint shown, read-out: Percentage inhibition of ligand binding, Adrenergic α2B
[14] = compound at 0.1 μM, [3H]MK-912, repeat assays, each datapoint shown, read-out: Percentage inhibition of ligand binding, Adrenergic α2A

Cc1ccc2c(c1)c1c(n2CC(c2cnccn2)N(C)C)CCN2CCCC12 (stereo not drawn) [II-7, dimethyl-[2-(9-methyl-1,2,3,4,5,10c-hexahydro-3a,6-diaza-cyclopenta[c]fluoren-6-yl)-1-pyrazin-2-yl-ethyl]-amine]
inhibition at 0.1 µM [1, 4]: 95%
inhibition at 0.03 µM [2, 5]: 100%
inhibition at 0.1 µM [3, 6]: 52%

Cc1cc2c3c(n(CC(C)(O)c4cccnc4)c2cn1)CCN1CCCC31 (stereo not drawn) [II-5]
inhibition at 0.1 µM [1, 4]: 2%
inhibition at 0.03 µM [2, 5]: 4%
inhibition at 0.1 µM [3, 6]: 9%

CC(O)(Cn1c2c(c3cc(Cl)ccc31)CNCC2)c1ccncc1 (stereo not drawn) [II-62, 1-(8-chloro-1,2,3,4-tetrahydro-pyrido[4,3-b]indol-5-yl)-2-pyridin-4-yl-propan-2-ol]
inhibition at 0.1 µM [1, 4]: 14%
inhibition at 0.03 µM [2, 5]: 37%
inhibition at 0.1 µM [3, 6]: 5%

Cc1ccc2c(c1)c1c(n2CCc2ccc(C)nc2)CCN2CCCC12 (stereo not drawn) [197a, 9-methyl-6-[2-(6-methyl-pyridin-3-yl)-ethyl]-2,3,4,5,6,10c-hexahydro-1H-3a, 6-diaza-cyclopenta[c]fluorene]
inhibition at 0.1 µM [1, 7]: 82%
inhibition at 0.03 µM [2, 8]: 81%
inhibition at 0.1 µM [3, 9]: 31%

Cc1ccc2c(c1)c1c(n2CC(O)c2ccncc2)CC2CCCN2C1 (single isomer, unassigned) [76c]
Percentage inhibition of ligand binding, Adrenergic α1B [1, 10]: 33%
Percentage inhibition of ligand binding, Adrenergic α2B [2, 11]: 35%
Percentage inhibition of ligand binding, Adrenergic α2A [3, 12]: 5%

Cc1ccc2c(c1)c1c(n2CC(O)c2ccccn2)CN(C)CC1 (single isomer, unassigned) [22b]
Percentage inhibition of ligand binding, Adrenergic α1B [1, 10]: 9%
Percentage inhibition of ligand binding, Adrenergic α2B [2, 11]: 30%
Percentage inhibition of ligand binding, Adrenergic α2A [3, 12]: 0%

Cc1ccc2c(c1)c1c(n2CC(C)(O)c2ccc[n+]([O-])c2)CCN(C)C1 (single isomer, unassigned) [56a]
Percentage inhibition of ligand binding, Adrenergic α1B [1, 10]: 1%
inhibition at 0.03 µM [2, 13]: 20%
inhibition at 0.1 µM [3, 14]: 11%

CN1CCc2c(c3ccc(C(F)(F)F)cc3n2CC(O)c2ccncc2)C1 (stereo not drawn) [compound 65, 2-(2-methyl-7-(trifluoromethyl)-3,4-dihydro-1H-pyrido[4,3-b]indol-5(2H)-yl)-1-(pyridin-4-yl)ethanol]
inhibition at 0.1 µM ([1]; compound at 0.1 μM, [3H]Prazosin, repeat assays, each datapoint shown, read-out: Percentage inhibition of ligand binding, Adrenergic α1B): -13%
inhibition at 0.03 µM [2, 13]: 64%
inhibition at 0.1 µM [3, 14]: -3%

Cc1ccc2c(c1)c1c(n2CC(O)c2ccnc3ccccc23)CCN(C)C1 (stereo not drawn) [II-90, 2-(2,8-dimethyl-3,4-dihydro-1H-pyrido[4,3-b]indol-5(2H)-yl)-1-(quinolin-4-yl)ethanol]
inhibition at 0.1 µM [1, 4]: 62%
inhibition at 0.03 µM [2, 5]: 55%
inhibition at 0.1 µM [3, 6]: 19%

Cc1ccc2c(c1)c1c(n2CC(N)c2ccc(F)cc2)CCN(C)C1 (single isomer, unassigned) [II-11b, 2-(2,8-dimethyl-3,4-dihydro-1H-pyrido[4,3-b]indol-5(2H)-yl)-1-(4-fluorophenyl)ethanamine]
Percentage inhibition of ligand binding, Adrenergic α1B ([1]; 0.1 μM compound, 0.1 µM): 76%
Percentage inhibition of ligand binding, Adrenergic α2B ([2]; 0.03 μM compound, 0.03 µM): 89%
Percentage inhibition of ligand binding, Adrenergic α2A ([3]; 0.1 μM compound, 0.1 µM): 43%

OC(Cn1c2c(c3cccnc31)CN1CCCC1C2)c1ccncc1 (single isomer, unassigned) [37b]
Percentage inhibition of ligand binding, Adrenergic α1B [1, 10]: −10%
Percentage inhibition of ligand binding, Adrenergic α2B [2, 11]: −3%
Percentage inhibition of ligand binding, Adrenergic α2A [3, 12]: −20%

OC(Cn1c2c(c3cc(Cl)ccc31)CNCC2)c1ccncc1 (single isomer, unassigned) [10b, 2-(8-chloro-1,2,3,4-tetrahydro-pyrido[4,3-b]indol-5-yl)-1-pyridin-4-yl-ethanol]
Percentage inhibition of ligand binding, Adrenergic α1B [1, 10]: 28%
Percentage inhibition of ligand binding, Adrenergic α2B [2, 11]: 91%
Percentage inhibition of ligand binding, Adrenergic α2A [3, 12]: 15%

COc1cccc2c3c(n(CC(O)c4ccncc4)c12)CCN(C)C3 (single isomer, unassigned) [44b, 2-(6-methoxy-2-methyl-3,4-dihydro-1H-pyrido[4,3-b]indol-5(2H)-yl)-1-(pyridin-4-yl)ethanol]
Percentage inhibition of ligand binding, Adrenergic α1B [1, 10]: 18%
Percentage inhibition of ligand binding, Adrenergic α2B [2, 11]: 75%
Percentage inhibition of ligand binding, Adrenergic α2A [3, 12]: 1%

Cc1cnc2c(c1)c1c(n2CCc2ccncc2)CCN2CCCC12 (single isomer, unassigned) [II-244b, 9-methyl-6-(2-pyridin-4-yl-ethyl)-2,3,4,5,6,10c-hexahydro-1H-3a,6,7-triaza-cyclopenta[c]fluorene]
Percentage inhibition of ligand binding, Adrenergic α1B (0.1 μM) ([1]; compound at 0.1 μM, [3H]Prazosin, repeat datapoints each shown, 0.1 µM): 12%
Percentage inhibition of ligand binding, Adrenergic α2B (0.03 μM) ([2]; compound at 0.03 μM, [3H]Rauwolscine, repeat datapoints each shown, 0.03 µM): 16%
Percentage inhibition of ligand binding, Adrenergic α2A (0.1 μM) ([3]; compound at 0.1 μM, [3H]MK-912, repeat datapoints each shown, 0.1 µM): 2%

Cc1cnc2c(c1)c1c(n2CC(C)(O)c2cccnc2)CCN2CCCC12 (single isomer, unassigned) [26c]
Percentage inhibition of ligand binding, Adrenergic α1B [1, 10]: 1%
Percentage inhibition of ligand binding, Adrenergic α2B [2, 11]: 1% and 7%
Percentage inhibition of ligand binding, Adrenergic α2A [3, 12]: 19%

Cc1ccc2c(c1)c1c(n2CC(O)c2ccncc2C)CCN(C)C1 (stereo not drawn) [133a]
inhibition at 0.1 µM [1, 7]: 57%
inhibition at 0.03 µM [2, 8]: 52%
inhibition at 0.1 µM [3, 9]: 13%

OC(Cn1c2c(c3cc(Cl)ccc31)CNCC2)c1cccnc1 (stereo not drawn) [II-89, 2-(8-chloro-1,2,3,4-tetrahydro-pyrido[4,3-b]indol-5-yl)-1-pyridin-3-yl-ethanol]
inhibition at 0.1 µM [1, 4]: 13%
inhibition at 0.03 µM [2, 5]: 35%
inhibition at 0.1 µM [3, 6]: -5%

OC(Cn1c2c(c3cccnc31)CN1CCCC1C2)c1ccncc1 (single isomer, unassigned) [37c]
Percentage inhibition of ligand binding, Adrenergic α1B [1, 10]: 2%
Percentage inhibition of ligand binding, Adrenergic α2B [2, 11]: 0%
Percentage inhibition of ligand binding, Adrenergic α2A [3, 12]: 6%
